Results on 57 molecules are retold here after publication PMC3199943, “Screening the MayBridge Rule of 3 Fragment Library for Compounds That Interact with the Trypanosoma brucei myo-Inositol-3-Phosphate Synthase and/or Show Trypanocidal Activity” (Molecular Biology International, 2011).

Counter-ions that a name gives are not always drawn. Like-named read-outs stand apart in the source and are kept apart here.

One assay relates to HeLa cells. Description: cells. As to conditions: for CC50 / viability at 500 µM: Homo sapiens, HeLa; for CC50: read-out: HeLa ED50; for viability at 500 µM: 65 h. As for the experimental part: (§1) Cytotoxic effects against HeLa and A549 cells were determined in a similar manner. Briefly, the cells were cultured in DMEM supplemented with 10% FCS and 2 mM L-Glutamine. Cells were plated at initial cell concentration of 2 × 10^4 cells/well and incubated with the compounds for ~65 hours prior to addition of Alamar Blue solution for a further 5 hours.

For the next assay, the system named is A549 cells. Description: Cytotoxicity against A549 cells, Alamar Blue. Conditions: Supplementary Table 1, compound 0.5 mM, percentage of controls (n=1); for viability at 500 µM: Homo sapiens, A549, 65 h. In kind it is cell-based. As for the experimental part:
as §1
For orientation: Alamar Blue is a resazurin reagent that responds to reducing activity.

The mark [1] stands for this setting: read-out: HeLa Cells Alamar Blue.
[2] abbreviates: read-out: HeLa Cells Alamar Blue, Supplementary Table 1, compound 0.5 mM, percentage of controls, mean ± SD (n=3) or SE (n=2).

As to `Nc1ccccc1N` [269a, benzene-1,2-diamine], the CC50 with HeLa cells is 32.9 ± 2.5 µM.

Take `Nc1ccc(Cl)c(F)c1` [269b]: the CC50 with HeLa cells stood at 1400 ± 100 µM.

Take `Nc1ccc(Cl)cc1N` [269c]: the CC50 with HeLa cells was found to be 224 ± 35 µM.

On to `Fc1cc2nc[nH]c2cc1Cl` [269d], for which the CC50 with HeLa cells is 520 ± 52 µM.

Take `Nc1ccccc1O` [269e, 2-amino-phenol]: the CC50 in the assay with HeLa cells stood at 68.2 ± 3.2 µM.

For `Nc1ccncc1` [compound 2, pyridin‐4‐amine], the viability at 500 µM was found to be 106% in the assay on A549 cells and 103 ± 2.2% in the assay with HeLa cells (setting [1]).

For `N#CN1CCCC1` [compound 3, pyrrolidine‐1‐carbonitrile], the viability at 500 µM in the assay on A549 cells was determined as 115%; with HeLa cells (setting [1]), 88.5 ± 1.3%.

As to `Cc1cc(C)on1` [compound 4, 3,5‐dimethylisoxazole], the viability at 500 µM stood at 123% in the assay on A549 cells and 108 ± 5.3% with HeLa cells (setting [1]).

As for `Cc1cc(N)on1` [compound 10, 3‐methylisoxazol‐5‐amine], the results for the viability at 500 µM in the assay on A549 cells and in the assay with HeLa cells (setting [1]) were 87.2% and 66 ± 4.6%, respectively.

For the molecule `Cc1cc(C)n(C)n1` [compound 24, 1,3,5‐trimethyl‐1H‐pyrazole], the viability at 500 µM with A549 cells is 88.5%; with HeLa cells (setting [1]), 99.7 ± 11.5%.

On to `CCc1nc(C)c[nH]1` [compound 25, 2‐ethyl‐4‐methyl‐1H‐imidazole], for which the results for the viability at 500 µM in the assay with A549 cells and with HeLa cells (setting [1]) were 83.9% and 98 ± 7.8%, respectively.

`Cc1noc(N)c1C` [compound 32, 3,4‐dimethylisoxazol‐5‐amine]: the viability at 500 µM in the assay on A549 cells amounted to 71.7%; in the assay on HeLa cells (setting [1]) it was 76.4 ± 5.7%.

`Cc1cc(CN)no1` [compound 33, (5‐methyl‐3‐isoxazolyl)methylamine]: the figures for the viability at 500 µM in the assay with A549 cells and with HeLa cells (setting [1]) were 75.6% and 64.3 ± 18.4%, respectively.

For `Cn1ccnc1CO` [compound 34, (1‐methyl‐1H‐imidazol‐2‐yl)methanol], the viability at 500 µM turned out to be 72.1% with A549 cells and 97 ± 14% in the assay with HeLa cells (setting [1]).

Regarding `OCC1CCNCC1` [compound 40, 4‐piperidylmethanol], the viability at 500 µM came out at 104% in the assay with A549 cells and 84.3 ± 9% with HeLa cells (setting [1]).

Consider `OCC1CCOCC1` [compound 43, tetrahydro‐2H‐pyran‐4‐ylmethanol], for which the viability at 500 µM in the assay with A549 cells stood at 79.2%; with HeLa cells (setting [1]), 91.9 ± 5.9%.

For `COC(=O)C1NCCS1` (stereo not shown) [compound 44, methyl 1,3-thiazolane-2-carboxylate hydrochloride], the viability at 500 µM with A549 cells was 87%.

For `OC1CCSCC1` [compound 47, tetrahydro‐2H‐thiopyran‐4‐ol], the viability at 500 µM with A549 cells was 74.9%; in the assay on HeLa cells (setting [1]) it was 95 ± 10%.

Consider `Clc1ccsc1` [compound 48, 3‐chlorothiophene], for which the viability at 500 µM came to 101% in the assay with A549 cells and 95.5 ± 2% with HeLa cells (setting [1]).

For the molecule `c1ccc2c(c1)CCO2` [compound 49, 2,3‐dihydrobenzo[b]furan], the values for the viability at 500 µM in the assay on A549 cells and with HeLa cells (setting [1]) were 87.3% and 102 ± 8.6%, respectively.

As for `N#CCCn1cccc1` [compound 50, 3‐(1H‐pyrrol‐1‐yl)propanenitrile], the viability at 500 µM stood at 140% with A549 cells and 75.4 ± 6.4% with HeLa cells (setting [1]).

For `Cc1cccc(N)c1N` [compound 55, 3‐methylbenzene‐1,2‐diamine], the viability at 500 µM is 26.5% in the assay with A549 cells and 11.2 ± 7.2% in the assay with HeLa cells (setting [1]).

For the molecule `CNCc1cccnc1` [compound 57, N‐methyl‐N‐(3‐pyridylmethyl)amine], the viability at 500 µM in the assay on A549 cells was 79%; in the assay with HeLa cells (setting [1]), 89.3 ± 9.6%.

With `O=C(O)c1ccccn1` [compound 58, 2‐pyridinecarboxylic acid], the viability at 500 µM in the assay with A549 cells came to 97.9%; in the assay with HeLa cells (setting [1]), 87.3 ± 6.1%.

Turning to `O=C(O)c1ccncc1` [compound 60, isonicotinic acid], the viability at 500 µM is 118% in the assay with A549 cells and 98.3 ± 12.5% in the assay on HeLa cells (setting [1]).

For `Cc1cccc(CO)n1` [compound 62, (6‐methylpyridin‐2‐yl)methanol], the viability at 500 µM in the assay with A549 cells was found to be 67.5%; with HeLa cells (setting [1]), 98.6 ± 7.3%.

With `OCCc1cccnc1` [compound 63, 2‐(3‐pyridyl)ethan‐1‐ol], the viability at 500 µM in the assay with A549 cells was determined as 76.9%; in the assay with HeLa cells (setting [1]), 105 ± 13.1%.

`N#Cc1ccsc1N` [compound 68, 2‐aminothiophene‐3‐carbonitrile]: the values for the viability at 500 µM with A549 cells and with HeLa cells (setting [1]) were 136% and 102 ± 3.1%, respectively.

Turning to `Cn1cccc1C(=O)O` [compound 69, 1‐methyl‐1H‐pyrrole‐2‐carboxylic acid], the values for the viability at 500 µM with A549 cells and with HeLa cells (setting [1]) were 70.2% and 95.3 ± 2.5%, respectively.

`NCc1cccc(F)c1` [compound 70, 3‐fluorobenzylamine]: the viability at 500 µM with A549 cells was found to be 104%; with HeLa cells (setting [1]), 104 ± 17.4%.

For `NCc1ccc(F)cc1` [compound 71, 4‐fluorobenzylamine], the viability at 500 µM in the assay with A549 cells came to 110%; in the assay with HeLa cells (setting [1]), 93.3 ± 10.3%.

In the case of `Cc1cc(CN)n(C)n1` [compound 73, (1,3‐dimethyl‐1H‐pyrazol‐5‐yl)methylamine], the “A549 Cells Alamar Blue” value in the assay with A549 cells is 107.6 percentage of controls. Also, the “HeLa Cells Alamar Blue” value with HeLa cells (Supplementary Table 1, compound 0.5 mM, percentage of controls, mean ± SD (n=3) or SE (n=2)) was 91.3 ± 0.6 percentage of controls.

Consider `CC(=O)c1nccs1` [compound 79, 1‐(1,3‐thiazol‐2‐yl)ethan‐1‐one], for which the viability at 500 µM turned out to be 94.5% in the assay with A549 cells and 103 ± 16.6% with HeLa cells (setting [1]).

Regarding `NC(=O)c1cccs1` [compound 80, thiophene‐2‐carboxamide], the viability at 500 µM amounted to 90.3% in the assay on A549 cells and 106 ± 17.5% in the assay on HeLa cells (setting [1]).

`O=C(O)c1cccs1` [compound 85, thiophene‐2‐carboxylic acid]: the viability at 500 µM was determined as 119% in the assay on A549 cells and 100 ± 7.4% in the assay on HeLa cells (setting [1]).

As to `O=C(O)C1CCCNC1` (stereo not shown) [compound 91, 3-piperidinecarboxylic acid], the viability at 500 µM in the assay with A549 cells worked out at 103%; in the assay with HeLa cells (read-out: HeLa Cells Alamar Blue (% survival), compound 0.5 mM, percentage of controls), 76.6 ± 29.1%; in the assay with HeLa cells (setting [2]), 76.6 ± 29.1%.

Regarding `O=C(O)C1CCOCC1` [compound 92, tetrahydro‐2H‐pyran‐4‐carboxylic acid], the viability at 500 µM was determined as 118% with A549 cells and 78.4 ± 15.8% in the assay on HeLa cells (setting [1]).

As to `Cc1cccc2cc[nH]c12` [compound 95, 7‐methyl‐1H‐indole], the viability at 500 µM in the assay with A549 cells stood at 13.4%; with HeLa cells (setting [1]) it was 11.9 ± 8.8%.

In the case of `Nc1ccc2[nH]ncc2c1` [compound 101, 1H‐indazol‐5‐amine], the viability at 500 µM in the assay on A549 cells was 70.6%; with HeLa cells (setting [1]), 31.7 ± 16.2%.

As for `FC(F)(F)c1cc[nH]n1` [compound 114, 3‐(trifluoromethyl)‐1H‐pyrazole], the figures for the viability at 500 µM in the assay with A549 cells and with HeLa cells (setting [1]) were 73.8% and 85.9 ± 6.1%, respectively.

In the case of `Cc1ccc(CO)cc1C` [compound 119, (3,4‐dimethylphenyl)methanol], the viability at 500 µM in the assay on A549 cells stood at 124%; in the assay with HeLa cells (setting [1]), 84.7 ± 15.3%.

For the molecule `NCCOc1ccccc1` [compound 122, 2‐phenoxyethylamine], the figures for the viability at 500 µM with A549 cells and in the assay with HeLa cells (setting [1]) were 100% and 73.6 ± 5.4%, respectively.

Turning to `CC(=O)c1cccc(F)c1` [compound 125, 1‐(3‐fluorophenyl)ethan‐1‐one], the values for the viability at 500 µM in the assay with A549 cells and in the assay on HeLa cells (setting [1]) were 101% and 83 ± 14.8%, respectively.

For `Cc1nc(CCN)cs1` [compound 141, 2‐(2‐methyl‐1,3‐thiazol‐4‐yl)ethylamine], the viability at 500 µM in the assay with A549 cells came out at 105%; in the assay on HeLa cells (setting [1]) it was 98.9 ± 7.6%.

Turning to `c1ccc(-c2c[nH]cn2)cc1` [compound 149, 4‐phenyl‐1H‐imidazole], the viability at 500 µM came out at 99.1% with A549 cells and 80.2 ± 11.7% in the assay on HeLa cells (setting [1]).

Turning to `c1ccc(-c2cc[nH]n2)cc1` [compound 150, 3‐phenyl‐1H‐pyrazole], the viability at 500 µM with A549 cells amounted to 82%; with HeLa cells (setting [1]) it was 74.6 ± 17.7%.

For `CN1CCN(C)C(CO)C1` (stereo not shown) [compound 154, (1,4‐dimethyl‐2‐piperazinyl)methanol], the viability at 500 µM in the assay with A549 cells was determined as 117%; in the assay on HeLa cells (setting [1]), 96.9 ± 6.4%.

Turning to `Cn1ccc2cc(N)ccc21` [compound 158, 1‐methyl‐1H‐indol‐5‐amine], the viability at 500 µM with A549 cells came to 59.3%; with HeLa cells (setting [1]), 12.5 ± 9.1%.

For `COc1ccc(CC#N)cc1` [compound 161, 2‐(4‐methoxyphenyl)acetonitrile], the viability at 500 µM in the assay with A549 cells is 88.7%; in the assay on HeLa cells (setting [2]), 108 ± 3.1%.

As for `NCc1ccc2occc2c1` [compound 165, 1‐benzofuran‐5‐ylmethylamine], the viability at 500 µM is 90.7% in the assay on A549 cells and 92.6 ± 8.6% in the assay on HeLa cells (setting [1]).

For `OCc1cc2ccccc2o1` [compound 167, 1‐benzofuran‐2‐ylmethanol], the viability at 500 µM was 78.2% in the assay on A549 cells and 84.9 ± 19.3% in the assay with HeLa cells (setting [1]).

For the molecule `Cc1ccc(O)c2c1CCC2` [compound 173, 7‐methylindan‐4‐ol], the viability at 500 µM was 53.7% in the assay with A549 cells and 43.2 ± 15.6% in the assay with HeLa cells (setting [1]).

`Cc1ccc(C(N)=O)cc1C` [compound 177, 3,4‐dimethylbenzamide]: the viability at 500 µM is 64.2% in the assay on A549 cells and 81.7 ± 16.8% in the assay on HeLa cells (setting [1]).

`CC(C)(C)c1ccc(N)cc1` [compound 178, 4‐(tert‐butyl)aniline]: the results for the viability at 500 µM in the assay on A549 cells and in the assay on HeLa cells (setting [1]) were 87.6% and 109 ± 18.8%, respectively.

As for `CC(C)(C)c1cccc(N)c1` [compound 179, 3‐(tert‐butyl)aniline], the viability at 500 µM stood at 77.9% with A549 cells and 99.3 ± 14.7% in the assay on HeLa cells (setting [1]).

As for `OCC1Cc2ccccc2O1` (stereo not shown) [compound 187, 2,3‐dihydro‐1‐benzofuran‐2‐ylmethanol], the viability at 500 µM in the assay with A549 cells stood at 50.5%; with HeLa cells (setting [1]) it was 94.3 ± 13.3%.

Take `NC(=O)Cc1ccc(O)cc1` [compound 192, 2‐(4‐hydroxyphenyl)acetamide]: the viability at 500 µM with A549 cells stood at 44.6%; in the assay on HeLa cells (setting [1]), 96.9 ± 9.5%.
